# Patent publication US8202998B2, “Salts of benzimidazolyl pyridyl ethers and formulations thereof” (Novartis AG, priority 2006, dated 2012)
# Read-outs that look alike come from different tables or passages of the source.
# Experiments:
# Type in all cases: physicochemical
# [1] = Intrinsic dissolution rate; details: 37° C.
# Protocol: The intrinsic dissolution rate measurements were carried out in 0.5 cm^2 VanKel die assemblies and a pellet pressure of 1 ton. The dissolution was measured using a Cary 50 spectrophotometer with a stirring rate of 200 rpm. The solution medium was held at 37° C. and measurements were made at 276 nm.
# [2] = Thermogravimetry / loss on drying
# [3] = pH of 1% solution or suspension; details: In water
# [4] = Determination of solubility at 25° C.; details: for solubility: thermodynamic from solid
# Protocol: Excess solids were equilibrated in each solvent for over 24 hours at 25° C.±0.1. Concentration in aqueous supernatant was measured by UV and HPLC and concentrations in organic solvents by gravimetry.
# [5] = Hygroscopicity (sorption/desorption)
# Protocol: Sorption/desorption isotherms were measured using VTI vapor sorption device (DVS-1). Measurements were carried out at 25° C.
# [6] = Effect of grinding on morphic properties
# [7] = Stability: degradation products (DP) and appearance (color) under stress conditions; set-up: key to CL: A: No change of color; B: Slight discoloration; C: Medium discoloration; D: Strong discoloration; ↓: Suspension; *: Clear solution after stress test; —: no change; x: test not performed
# Protocol: Column: Symmetry C18 (Waters), 3.5 μm, 3×150 mm
# Mobile phase: A=0.1% TFA in water; B=acetonitrile
# Gradient: 20 to 100% B in 10 minutes
# Column temperature: 40° C.
# Stability of the three salts with respect to color and degradation products were assessed under various conditions.
# [8] = Polymorphism behavior: crystal modification after 24 hours equilibration
# Protocol: A suspension of 6 mg of drug substance in 300 μl of solvent is prepared. Samples are agitated for ≧24 hour at 22° C.±2° C. The solids are collected and investigated for changes.
# [9] = 0.1% solutions or suspensions, 1 week 80° C. or 50° C., Methanol
# [10] = 0.1% solutions or suspensions, 1 week 80° C. or 50° C., Water
# [11] = 1-2 weeks 50° C., tight container, 1% in mixture 1
# [12] = 1-2 weeks 50° C., tight container, 1% in mixture 2
# [13] = 1-2 weeks 50° C./75% r.h., 1% in mixture 1
# [14] = 1-2 weeks 50° C./75% r.h., 1% in mixture 2
# [15] = Solid stage, 1 week 80° C., tight container, Bulk (HPLC)
# [16] = Xenon light (approx. 1200 kLuxh), Bulk (HPLC)
smiles,measurement,setting,value
"CCS(=O)(=O)O.Cn1c(Nc2ccc(C(F)(F)F)cc2)nc2cc(Oc3ccnc(-c4ncc(C(F)(F)F)[nH]4)c3)ccc21 [Esylate, {1-methyl-5-[2-(5-trifluoromethyl-1H-imidazol-2-yl)-pyridin-4-yloxy]-1H-benzoimidazol-2-yl}-(4-trifluoromethyl-phenyl)amine ethanesulfonate]",Intrinsic dissolution rate,[1]; HCl 0.1N,0.06 mg min^−1 cm^−2
same,Intrinsic dissolution rate,[1]; Water,0.0036 mg min^−1 cm^−2
same,Loss on drying by TG,[2]; As is,2.1%
same,Thermogravimetry (weight loss in %),[2]; Heating rate 20 K/min,2.1%
same,pH of 1% solution or suspension,[3],2.2
same,solubility,"[4]; 0.1N HCl, 25 °C, simulated gastric fluid, read-out: Solubility (approx. at 25° C.) (HPLC)",3700 µg/mL
same,solubility,"[4]; acetonitrile, 25 °C, organic solvent or mixture, read-out: Solubility (approx. at 25° C.)",2100 µg/mL
same,solubility,"[4]; aqueous medium at pH 3, 25 °C, pH 3, aqueous buffer, read-out: Solubility (approx. at 25° C.) (HPLC)",2.3 µg/mL
same,solubility,"[4]; aqueous medium at pH 4.5, 25 °C, pH 4.5, aqueous buffer, read-out: Solubility (approx. at 25° C.) (HPLC)",3.7 µg/mL
same,Solid,[4]; line after Water under Solubility,No change
same,solubility,"[4]; methanol, 25 °C, organic solvent or mixture, read-out: Solubility (approx. at 25° C.)",> 50000 µg/mL
same,Measured pH,[4]; solubility sample in 0.1N HCl,1.4
same,Aqueous solubility (in words),[4]; summary of Table 8,significantly improves aqueous solubility at all pH levels
same,solubility,"[4]; water, 25 °C, water, read-out: Solubility (approx. at 25° C.) (HPLC)",60 µg/mL
same,Hygroscopicity from moisture sorption profiles (in words),[5],hygroscopic
same,Hygroscopicity: After 1 day at 80% r.h.,"[5]; 80% r.h., 1 day, 25° C.",5.3
same,Hygroscopicity: After 1 day at 95% r.h.,"[5]; 95% r.h., 1 day, 25° C.",14.9
same,Effect of grinding,[6],No change
same,CL,[7]; [9],A
same,DP,[7]; [9],2.5%
same,DP,"[7]; 0.1% solutions or suspensions, 1 week 80° C. or 50° C., Methanol, listed as esylate",2.7%
same,CL,[7]; [10],A↓
same,DP,[7]; [10],0.4%
same,CL,[7]; [11],A
same,DP,[7]; [11],0.5%
same,CL,[7]; [12],A
same,DP,[7]; [12],0.6%
same,CL,[7]; [13],A
same,DP,[7]; [13],1.8%
same,CL,[7]; [14],A
same,DP,[7]; [14],0.8%
same,CL,[7]; [15],A
same,DP,[7]; [15],0.5%
same,DP,"[7]; Solid state, 1 week 80° C./175% r.h, Bulk (HPLC)",0.6%
same,CL,"[7]; Solid state, 1 week 80° C./, Bulk (HPLC)",A
same,DP,[7]; Unstressed,0.5%
same,CL,[7]; [16],A
same,DP,[7]; [16],0.7%
same,Crystal modification after 24 hours equilibration (DSC/XRPD/TG),[8]; 2-propanol,No change
same,Crystal modification after 24 hours equilibration (DSC/XRPD/TG),[8]; Acetone,No change
same,Crystal modification after 24 hours equilibration (DSC/XRPD/TG),[8]; Acetonitrile,No change
same,Crystal modification after 24 hours equilibration (DSC/XRPD/TG),[8]; Ethanol,No change
same,Crystal modification after 24 hours equilibration (DSC/XRPD/TG),[8]; Ethyl acetate,No change
same,Crystal modification after 24 hours equilibration (DSC/XRPD/TG),[8]; Methanol,No change
same,Crystal modification after 24 hours equilibration (DSC/XRPD/TG),[8]; PEG400,No change
same,Crystal modification after 24 hours equilibration (DSC/XRPD/TG),[8]; Water,No change
